According to US7572775B2, “Method of inhibiting intestinal polyps” (Japan as Represented by Director General of Agency of …, priority 2004, dated 2009):
Marks after values point to notes of the source that are not given here.

System: Min mice of a familial adenomatous polyposis model (Apc gene deficient mice, C57BL/6-ApcMin/+)
Test: Intestinal polyp suppression test (intestinal polyp assay) in Min mice
Type: in vivo, mouse
Settings: for Number of polyps/mouse, colon / Number of polyps/mouse, small intestine, central / Number of polyps/mouse, small intestine, distal / Number of polyps/mouse, small intestine, proximal / Number of polyps/mouse, total / Number of polyps, percentage of the result for the 0 dose (control) group, small intestine, central / Number of polyps, percentage of the result for the 0 dose (control) group, small intestine, distal / Number of polyps, percentage of the result for the 0 dose (control) group, small intestine, proximal / Number of polyps, percentage of the result for the 0 dose (control) group, colon / Number of polyps, percentage of the result for the 0 dose (control) group, total: male Min mice; for Number of polyps/mouse, colon / Number of polyps/mouse, small intestine, central / Number of polyps/mouse, small intestine, distal / Number of polyps/mouse, small intestine, proximal / Number of polyps/mouse, total: average ± SE; for Number of polyps, percentage of the result for the 0 dose (control) group, small intestine, proximal: p < 0.01 vs control
Protocol: The experimental animals were male Min mice of a familial adenomatous polyposis model (Apc (Adenomatous polyposis coli) gene deficient mice, C57BL/6-ApcMin/+, Jackson Laboratory, Bar Harbor, Me.). These mice were purchased at age 5 weeks, and acclimatized for 2 weeks to laboratory conditions (24±2° C., humidity 55%, 12 hours light/12 hours dark cycle, free access to feed and water) before being used in the tests. The feed was “AIN-76A” basic feed (Clea Japan).
Wild-type […] mice (from the same source) were subjected to the same test as a control.
Compound A was used as the experimental medicine. The compound was mixed to a specific concentration (400 ppm or 800 ppm) with the AIN-76A basic feed for use in the tests.
Feed comprising a specific amount of the experimental medicine mixed to a specific concentration with basic feed (AIN-76A) was administered to the experimental group mice (2 groups of 10 mice) and comparison group mice (1 group of 10 mice) for 13 weeks from age 7 weeks to age 20 weeks (natural feeding). When death was confirmed during the experiment, however, administration was naturally discontinued.
A group of 10 mice receiving basic feed (AIN-76A) without the experimental medicine added for the same length of time was set up as a control group (experimental drug non-administration group).
13 weeks after the start of the experiment the mice in all groups (excluding those which had died) were euthanized, and an intestinal polyp assay was performed as follows.
The intestines were removed from the mice in all groups, placed in phosphate buffer containing 10% formalin, and then separated into four parts: (1) the colon, (2) the proximal part of the small intestine (about 4 cm long beginning at the pylorus), (3) the central part of the small intestine (the center of the remaining half of the small intestine) and (4) the distal part of the small intestine (the distal part of the remaining half of the small intestine). Each part was opened longitudinally, and fixed flat between sheets of filter paper in phosphate buffer containing 10% formalin.
The number and size of polyps and their distribution in the intestines were counted, measured and evaluated under a stereoscopic microscope. These methods are described in the literature reference(Watanabe, K. et al., “Role of the prostaglandin E receptor subtype EP1 in colon carcinogenesis”, Cancer Res., 59, 5093-6 (1999)).

[1] = 400 ppm in AIN-76A feed for 13 weeks
[2] = 400 ppm in feed for 13 weeks, p < 0.05 vs control
[3] = 800 ppm in AIN-76A feed for 13 weeks
[4] = 800 ppm in feed for 13 weeks, p < 0.05 vs control

Compound: CCOP(=O)(Cc1ccc(C(=O)Nc2ccc(Br)cc2C#N)cc1)OCC [Compound A, 4-diethoxyphosphinoylmethyl-N-(4-bromo-2-cyanophenyl)benzamide]
- Number of polyps by polyp diameter (FIG. 1) (400 ppm and 800 ppm in feed, Min mice, polyp diameter (mm)): reduction in the number of polyps of all sizes
- Number of polyps/mouse, colon [1]: 0.4 ± 0.2 polyps/mouse
- Number of polyps/mouse, small intestine, central [1]: 16.1 ± 3.8 polyps/mouse
- Number of polyps/mouse, small intestine, distal [1]: 33.0 ± 6.5 polyps/mouse
- Number of polyps/mouse, small intestine, proximal [1]: 8.5 ± 1.4 polyps/mouse
- Number of polyps/mouse, total [1]: 58.0 ± 10.8 polyps/mouse
- Number of polyps, percentage of the result for the 0 dose (control) group, small intestine, central (400 ppm in feed for 13 weeks): (43) percentage
- Number of polyps, percentage of the result for the 0 dose (control) group, small intestine, distal (400 ppm in feed for 13 weeks): (55) percentage
- Number of polyps, percentage of the result for the 0 dose (control) group, small intestine, proximal (400 ppm in feed for 13 weeks): (37)^d percentage
- Number of polyps, percentage of the result for the 0 dose (control) group, colon [2]: (38)^c percentage
- Number of polyps, percentage of the result for the 0 dose (control) group, total [2]: (48)^c percentage
- Mice that died during the experiment (death due to bleeding from polyps) (400 ppm in feed, group of 10 Min mice, 13 weeks, 3 died in the control group): 2 mice
- Number of polyps/mouse, colon [3]: 0.3 ± 0.2 polyps/mouse
- Number of polyps/mouse, small intestine, central [3]: 13.8 ± 2.6 polyps/mouse
- Number of polyps/mouse, small intestine, distal [3]: 30.5 ± 5.0 polyps/mouse
- Number of polyps/mouse, small intestine, proximal [3]: 5.9 ± 1.0 polyps/mouse
- Number of polyps/mouse, total [3]: 50.5 ± 7.8 polyps/mouse
- Number of polyps, percentage of the result for the 0 dose (control) group, small intestine, proximal (800 ppm in feed for 13 weeks): (26)^d percentage
- Number of polyps, percentage of the result for the 0 dose (control) group, colon [4]: (30)^c percentage
- Number of polyps, percentage of the result for the 0 dose (control) group, small intestine, central [4]: (37)^c percentage
- Number of polyps, percentage of the result for the 0 dose (control) group, small intestine, distal [4]: (51)^c percentage
- Number of polyps, percentage of the result for the 0 dose (control) group, total [4]: (42)^c percentage
- Polyp suppression effect (dosage of either 400 ppm or 800 ppm in feed, Min mice): excellent polyp suppression effect
